Experimental data from ChEMBL document CHEMBL5725801, “Fused heterocyclic compounds as CaM kinase inhibitors” (2018).

Test: CaMKII Cell-Based Activity: CaMKII activity in neonatal rat ventricular myocytes (NRVM) was measured by monitoring the phosphorylation level of phospholamban using high-content imaging. NRVMs were plated in a clear bottom 384-well plate in medium supplemented with 10% fetal bovine serum (FBS) and incubated at 37° C., 5% CO2 overnight. The medium was changed to a serum-free medium and compounds were dosed to the cells. The cells were incubated at 37° C., 5% CO2 for 4 hours and were then treated with 100 nM ATX-II (Alomone Labs) to activate CaMKII. 10 minutes after the addition of ATX-II, the cells were fixed with 4% formaldehyde followed by permeabilization with 0.1% triton X100. The fixed cells were stained with an anti-phospho-phospholamban primary antibody (Santa Cruz Biotechnology) and an Alexa488-labeled anti-rabbit IgG secondary antibody (Life Technologies Corporation) as well as Hoechst 33342 (Life Technologies Corporation). The cells were imaged using an ArrayScan VTI (Cellomics) and analyzed for cells containing a positive fluorescent signal at 485 nm, reported as % responder. The % responders were plotted against the compound concentration to determine the compounds EC50.

SMILES | EC50 [nM]
O=C(NC[C@@H]1CCCN1)c1ccnc(-c2cnn3ccc(-c4cccs4)nc23)c1 | 125
CCN(CC)[C@@H](C)CNC(=O)c1cc(OCCN(C)C)nc(-c2cnn3ccc(-c4cccs4)nc23)c1 | 115
CCN(CC)[C@@H](C)CNC(=O)c1cc(-c2cnn3ccc(-c4cccs4)nc23)nc(N2CCC(OC)CC2)c1 | 110
CCN(CC)[C@@H](C)CNC(=O)c1cc(-c2cnn3ccc(-c4ccns4)nc23)nc(N2CC(OC)C2)c1 | 13.9
CCN(CC)[C@@H](C)CNC(=O)c1cc(-c2cnn3ccc(-c4cccs4)nc23)nc(N2CCN(C(C)=O)CC2)c1 | 43.6
COC1CN(c2cc(C(=O)NCC34CCCN3CCC4)cc(-c3cnn4ccc(-c5ccccc5)nc34)n2)C1 | 69.6
COC1CN(c2cc(C(=O)N3CC[C@H](N)C3)cc(-c3cnn4ccc(-c5cccs5)nc34)n2)C1 | 154
O=C(c1ccnc(-c2cnn3ccc(-c4ccccc4)nc23)c1)N1C2CCCC1CNCC2 (configuration not stated) | 51.6
CCN(CC)[C@@H](C)CNC(=O)c1cc(-c2cnn3ccc(-c4cccs4)nc23)nc(N2CC(NC(=O)C3CC3)C2)c1 | 3.75
CCN[C@@H](CC)CNC(=O)c1ccnc(-c2cnn3ccc(-c4cccs4)nc23)c1 | 43.3
CCN(CC)[C@@H](C)CNC(=O)c1cc(NCC2(N3CCCC3)COC2)nc(-c2cnn3ccc(-c4cccs4)nc23)c1 | 232
CCN(CC)[C@@H](C)CNC(=O)c1cc(-c2cnn3ccc(-c4cccs4)nc23)nc(N2CC[C@H]2COC)c1 | 78.4
CCN[C@@H](C)CNC(=O)c1cc(Cl)nc(-c2cnn3ccc(-c4ccccc4)nc23)c1 | 13.8
CCN(CC)[C@@H](C)CNC(=O)c1cc(-c2cnoc2)nc(-c2cnn3ccc(-c4cccs4)nc23)c1 | 29.7
O=C(c1ccnc(-c2cnn3ccc(-c4cccs4)nc23)c1)N1C2CCNCC1CC2 (configuration not stated) | 187
COC1CN(c2cc(C(=O)N3[C@H]4CCNC[C@@H]3CC4)cc(-c3cnn4ccc(-c5cccs5)nc34)n2)C1 | 148
CCNC(=O)[C@@H]1CCN1c1cc(C(=O)NC[C@H](C)N(CC)CC)cc(-c2cnn3ccc(-c4cccs4)nc23)n1 | 28.5

Further compounds by falling EC50, results first:

EC50 [nM] | SMILES
368 | CCN[C@@H](C)CNC(=O)c1cc(-c2cnn3ccc(-c4cccs4)nc23)nc(N2CC(C)(O)C2)c1
166 | CCN(CC)[C@@H](C)CNC(=O)c1cc(-c2cnn3ccc(-c4cccs4)nc23)nc(N2CCC[C@@H]2C(N)=O)c1
147 | CCN(CC)[C@@H](C)CNC(=O)c1cc(-c2cnn3ccc(-c4cccs4)nc23)nc(N2CC[C@H]2C(=O)N2CC(NS(C)(=O)=O)C2)c1
93.8 | CCN(CC)[C@@H](C)CNC(=O)c1cc(-c2cnn3ccc(-c4cccs4)nc23)nc(N2CC(C)(C)C2)c1
75.2 | CCN(CC)[C@@H](C)CNC(=O)c1cc(N[C@H](C)CO)nc(-c2cnn3ccc(-c4cccs4)nc23)c1
68.7 | CCN(CC)[C@@H](C)CNC(=O)c1cc(-c2cnn3ccc(-c4cccs4)nc23)nc(N2CC[C@H](N)C2)c1
66 | CC(C)C[C@@]1(CNC(=O)c2ccnc(-c3cnn4ccc(-c5cccs5)nc34)c2)CCCN1
37.8 | CCN(CC)[C@@H](C)CNC(=O)c1cc(OCCCOC)nc(-c2cnn3ccc(-c4cccs4)nc23)c1
33.3 | Cc1cnc(-c2cnn3ccc(-c4ccccc4)nc23)cc1C(=O)N1CCCC[C@@H]1CN
31.9 | CCN(CC)[C@@H](C)CNC(=O)c1cc(NCCN(C)C)nc(-c2cnn3ccc(-c4ccccc4)nc23)c1
29 | CCN(CC)[C@@H](C)CNC(=O)c1ccnc(-c2cnn3ccc(-c4ccccc4)nc23)c1
22.6 | CCN(CC)[C@@H](C)CNC(=O)c1cc(-c2cnn3ccc(-c4cccs4)nc23)nc(N2CC(NC(=O)N(C)C)C2)c1
12.3 | CCN(CC)[C@@H](C)CNC(=O)c1cc(-c2cnn(C3COC3)c2)nc(-c2cnn3ccc(-c4cccs4)nc23)c1
11.8 | CCCC(N)CNC(=O)c1ccnc(-c2cnn3ccc(-c4ccccc4)nc23)c1 (configuration not stated)
8.28 | CCN(CC)[C@@H](C)CNC(=O)c1cc(-c2cnn3ccc(-c4cccs4)nc23)nc(N2CC(C)(OC)C2)c1
